Results published in publication PMC10778976, “BAY-3827 and SBI-0206965: Potent AMPK Inhibitors That Paradoxically Increase Thr172 Phosphorylation” (International Journal of Molecular Sciences, 2023).
Each block holds one compound with its values, some of them ahead of it.

What was measured:
[1] = test system: endogenous AMPK from HEK-293 cells; test: Protection of immunoprecipitated AMPK against inactivation by PP2Cα (PPM1A); assay type: biochemical, human; settings: 200 µM
Procedure: AMPK was immunoprecipitated from HEK-293 cell lysate (2.5 mg of lysate protein) using a mixture of anti-α1 and -α2 antibodies. After extensive washing as in Section 4.5, aliquots equivalent to 80 µg of lysate protein were incubated in a shaking incubator at 30 °C for 10 min in Hepes buffer (50 mM Na Hepes, pH 7.4, 150 mM NaCl, 1 mM dithiothreitol, 0.02% (w/v) Brij-35) with 50 mM MgCl2 and sufficient PPM1A to yield about 80% inactivation, in the presence or absence of 200 µM AMP or the indicated concentration of BAY-3827 or SBI-0206965 (total volume 50 µL). The reaction was terminated by adding 1 mL of IP buffer (50 mM Tris/HCl, pH 7.4 at room temperature, 150 mM NaCl, 1 mM EDTA, 1 mM EGTA, 5 mM Na pyrophosphate, 50 mM NaF, 1 mM dithiothreitol, 0.1% (v/v) Triton X-100) and, after additional washing in the same buffer and a final wash into Hepes buffer, AMPK activity was determined using kinase assays as above.

purified rat liver AMPK = test: Allosteric activation of rat liver AMPK by AMP with and without BAY-3827; assay type: biochemical
From the text: (§1) AMPK assays measured the transfer of radioactivity from labelled ATP to a peptide substrate, which was separated from unreacted ATP by binding to P81 paper. This assay was described previously, except that we used [γ-^33P]ATP rather than [γ-^32P]ATP. The peptide substrate was the AMARA peptide in all experiments other than one, which analyzed allosteric activation by AMP (Figure 2A), when, for technical reasons, the SAMS peptide was used instead. With purified preparations of AMPK, it was assayed in solution, but for assays in cell lysates (Figure 3D and Figure 4D), it was first immunoprecipitated using a mixture of anti-α1 and -α2 antibodies and assayed in resuspended immunoprecipitates. After the initial immunoprecipitation of lysate containing 80 µg of protein, the pellets were washed twice with 1 mL of high salt IP buffer (50 mM Tris-HCL, pH 7.4 at 4 °C, 1 M NaCl, 1 mM EDTA, 1 mM EGTA, 50 mM NaF, 5 mM Na pyrophosphate, 1 mM dithiothreitol, 0.1% (v/v) Triton X-100) and twice with 1 mL of low salt IP buffer (as above but only 150 mM NaCl), followed by a final wash in 1 mL of assay buffer (50 mM Na Hepes, pH7.4, 150 mM NaCl, 1 mM dithiothreitol, 0.02% (v/v) Brij-35). After each wash, the pellet was recovered via centrifugation (16,000× g, 3 min) and then resuspended. The final resuspended pellets from each biological replicate were divided into two aliquots (40 µg lysate protein) to provide technical replicates and assayed as above.

[2] = test system: endogenous AMPK from HEK-293 cells; test: Activation of dephosphorylated immunoprecipitated AMPK by the LKB1 complex; assay type: biochemical, human; settings: 200 µM
Procedure: AMPK was immunoprecipitated from HEK-293 cell lysate (2.5 mg protein) using a mixture of anti-α1 and -α2 antibodies. After extensive washing, it was incubated in a shaking incubator at 30 °C for 20 min in Hepes buffer with 50 mM MgCl2 and sufficient PPM1A to yield about 90% inactivation (total volume of 250 µL). The reaction was terminated by adding 1 mL of IP buffer and, after additional washing in the same buffer, aliquots equivalent to 80 µg of lysate protein were incubated in a shaking incubator at 30 °C for 10 min in Hepes buffer with […] and 5 mM MgCl2, with or without a limiting amount of LKB1:STRADα:MO25α complex (0.5 µg) in the presence or absence of 200 µM AMP or the indicated concentration of BAY-3827 or SBI-0206965 (total volume of 50 µL). The reaction was terminated by adding 1 mL of IP buffer and, after additional washing in the same buffer and a final wash into Hepes buffer, AMPK activity was determined using kinase assays as above.

[3] = test system: Raptor (Ser792) phosphorylation in U2OS cells; test: Raptor phosphorylation in U2OS cells (Western blot); assay type: cell-based, human; settings: 3 µM
Procedure: (§2) T-Rex U2OS cells carrying a Flp Recombinase Target (FRT) site were generated as described previously and grown in Dulbecco’s Modified Eagle’s Medium (DMEM) supplemented with 10% (v/v) FBS and 1% (v/v) penicillin/streptomycin.
(§3) Cells were lysed rapidly in situ on culture plates using ice-cold lysis medium containing phosphatase inhibitors, as described previously.
(§4) SDS-PAGE was performed using precast NuPAGE Tris-acetate 3–8% gradient polyacrylamide gels in Tris-acetate running buffer when analyzing ACC, GBF1, or Raptor, or NuPAGE Bis-Tris 4–12% gradient polyacrylamide gels in the MOPS buffer system (ThermoFisher Scientific, Waltham, MA, USA) for other proteins (unless stated otherwise). Proteins were transferred to nitrocellulose membranes using the iBlot 2 system (ThermoFisher Scientific). Membranes were enhanced if necessary using SuperSignal Western Blot Enhancer (ThermoFisher Scientific), then blocked for 1 h in Li-Cor Odyssey blocking buffer. The membranes were probed with the appropriate primary antibody ([…]) overnight at 4 °C. Detection was performed using secondary antibody or streptavidin probe (for total ACC) coupled to IR 680 or IR 800 dye, and the membranes were scanned using the LICOR Odyssey IR imager. Protein concentrations were determined by Coomassie Blue binding with bovine serum albumin as a standard. The cellular levels of AMP and ATP were determined via direct perchloric acid extraction from cells, with LC:MS used to estimate the levels of each nucleotide.

[4] = test system: GBF1 (Thr1337) phosphorylation in U2OS cells; test: GBF1 phosphorylation in U2OS cells (Western blot); assay type: cell-based, human; settings: 3 µM
Procedure: as §2, §3, §4

[5] = test system: acetyl-CoA carboxylase (ACC, Ser80) phosphorylation in U2OS cells; test: ACC phosphorylation in U2OS cells (Western blot); assay type: cell-based, human; settings: 3 µM
Procedure: as §2, §3, §4

[6] = test system: human AMPK (α2β1γ1 complex); settings: control compound; cited from earlier work
AMPK = biological target: AMPK; set-up: method as in PMID 28625738; settings: read-out: Ki, competitive with ATP; cited from earlier work
71 kinases = test system: 71 kinases; set-up: method as in PMID 17850214; settings: 1 µM, screen against 71 kinases; cited from earlier work
110 kinases = test system: 110 kinases; set-up: method as in ref 27 = [27]; 27. International Centre for Kinase Profiling Kinase Profiling Inhibitor Database Available online: https://www.kinase-screen.mrc.ac.uk/kinase-inhibitors (accessed on 14 November 2023); settings: 10 µM, screen of 110 kinases; cited from earlier work
[7] = biological target: T1, “naïve” (unphosphorylated), bacterially expressed human α1β1γ1 complex (Homo sapiens, UniProt Q13131+Q9Y478); test: Allosteric activation of naïve (unphosphorylated) α1β1γ1 complex by MK-8722 with and without BAY-3827; assay type: biochemical
T1 construct: (His)6
T1 sequence (Q13131 whole entry): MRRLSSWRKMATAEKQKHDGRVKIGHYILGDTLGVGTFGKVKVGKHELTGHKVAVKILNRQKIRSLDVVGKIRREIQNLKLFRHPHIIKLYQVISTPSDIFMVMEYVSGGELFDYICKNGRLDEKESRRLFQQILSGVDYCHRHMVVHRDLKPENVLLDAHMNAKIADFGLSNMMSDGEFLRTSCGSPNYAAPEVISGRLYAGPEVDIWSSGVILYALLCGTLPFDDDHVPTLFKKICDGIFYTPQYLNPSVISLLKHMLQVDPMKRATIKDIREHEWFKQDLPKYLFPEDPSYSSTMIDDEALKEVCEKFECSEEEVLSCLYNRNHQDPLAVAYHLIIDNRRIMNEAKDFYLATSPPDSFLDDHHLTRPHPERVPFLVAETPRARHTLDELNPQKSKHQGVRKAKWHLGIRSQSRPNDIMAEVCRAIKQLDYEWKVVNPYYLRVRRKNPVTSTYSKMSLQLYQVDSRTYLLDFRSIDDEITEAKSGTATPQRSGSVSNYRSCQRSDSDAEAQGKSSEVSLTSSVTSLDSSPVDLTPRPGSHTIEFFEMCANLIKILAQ
T1 sequence (Q9Y478 2-270): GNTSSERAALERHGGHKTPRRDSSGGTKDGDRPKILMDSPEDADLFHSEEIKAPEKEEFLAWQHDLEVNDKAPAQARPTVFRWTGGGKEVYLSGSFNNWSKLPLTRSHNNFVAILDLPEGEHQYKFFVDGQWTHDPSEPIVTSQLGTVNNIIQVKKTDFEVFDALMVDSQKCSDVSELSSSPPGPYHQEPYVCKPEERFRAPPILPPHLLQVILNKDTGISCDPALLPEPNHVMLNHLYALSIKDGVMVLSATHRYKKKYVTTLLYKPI
T1 sequence (P54619 whole entry partner): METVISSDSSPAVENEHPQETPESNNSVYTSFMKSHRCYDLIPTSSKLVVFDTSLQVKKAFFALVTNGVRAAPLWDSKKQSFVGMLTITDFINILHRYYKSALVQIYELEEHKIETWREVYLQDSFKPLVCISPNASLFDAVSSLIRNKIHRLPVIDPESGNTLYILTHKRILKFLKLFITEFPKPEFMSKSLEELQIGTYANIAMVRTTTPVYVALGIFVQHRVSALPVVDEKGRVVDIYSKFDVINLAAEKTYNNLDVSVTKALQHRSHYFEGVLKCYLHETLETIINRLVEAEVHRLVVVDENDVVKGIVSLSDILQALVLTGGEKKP
From the text: as §1

[8] = in the presence of 30 nM BAY-3827

EC50 (purified rat liver AMPK; without BAY-3827): 5.9 µM
IC50 (purified rat liver AMPK; without BAY-3827, read-out: IC50 for inhibition by high AMP): 1800 µM
Compound: Nc1ncnc2c1ncn2[C@@H]1O[C@H](COP(=O)(O)O)[C@@H](O)[C@H]1O [AMP]
protection against inactivation by PPM1A [1]: substantial protection
maximal activation by AMP (purified rat liver AMPK; [8]): 2.7 fold
maximal activation by AMP (purified rat liver AMPK; without BAY-3827): 2.9 fold
promotion of activation by LKB1 [2]: > 2 fold

Compound: CC1=C(C#N)C(c2ccc3c(c2)c(NC(=O)c2ccccc2C)nn3C)C(C#N)=C(C)N1 [BAY-974]
elimination of MK-8722-stimulated Raptor phosphorylation [3]: not
elimination of MK-8722-stimulated GBF1 phosphorylation [4]: not
elimination of MK-8722-stimulated ACC phosphorylation [5]: not
inhibition of AMPK [6]: did not inhibit

Compound: CN(C)S(=O)(=O)c1ccc2c(c1)/C(=C/c1cc3c([nH]1)CCCC3)C(=O)N2 [SU6656]
Ki (AMPK): 0.17 µM

Compound: c1cc(-c2cnn3cc(-c4ccc(OCCN5CCCCC5)cc4)cnc23)ccn1 [compound C, dorsomorphin]
number of kinases inhibited to a greater extent than AMPK (71 kinases): 9
number of kinases inhibited to a greater extent than AMPK (110 kinases): no less than 30

maximal activation by MK-8722 [7, 8]: 6.7 fold
EC50 ([7]; without BAY-3827): 1.1 µM
maximal activation by MK-8722 ([7]; without BAY-3827): 11 fold
Compound: MK-8722
